In patent US9493466B2, “Treatment of cancer with TOR kinase inhibitors” (Signal Pharmaceuticals, LLC, priority 2011, dated 2016):

Legend:
U87MG tumors = test: CD31 immunohistochemistry in U87MG tumors; format: in vivo, mice; settings: 5 mg/kg BID oral for 4 days; p<0.001
Procedure: Mechanism of action studies. To determine the mechanism of action of Compound 1, mice bearing U87MG tumors of approximately 500 mm^3 were dosed orally with vehicle or Compound 1 at 5 mg/kg BID for 4 days. The positive control, rapamycin, was dosed at 4 mg/kg Q3D for 4 days. Two hours after the 7th dose of Compound 1 on day 4, animals were euthanized and tumors were dissected out and snap frozen in liquid nitrogen. In the rapamycin-treated group tumors were collected at 2 hour after the 2nd dose on day 4. The tumors were processed for immunohistochemistry (IHC) or TUNEL.
Immunohistochemistry. Five to ten micron (5-10 μm) thick cryostat sections were used for IHC. The expression of the cell proliferation marker Ki67 was evaluated by IHC using anti-Ki67 antibody. […] The sections were visualized with a Nikon E800 microscope equipped with fluorescence detection equipment and a digital camera attached to a computer.
Quantitation of Immunohistochemistry. The tissues sections processed for apoptosis or immunostained for proliferating cells (Ki67) or blood vessels were quantitated using Metamorph software. Using 20× objective, 5 different fields from each section, 2-4 sections from each tumor, and 3-4 tumors from each treatment group or control were used for quantitation. The area of interest was expressed as the percent threshold area of the total area. […]

NSCLC = test: Phase 1/2 study Part B: tumor response, NSCLC; format: in vivo, human; settings: 17 evaluable patients
Description: (§1) In Part B, subjects may start Compound 1 at the MTD and/or a lower dose level based on safety, PK and PD data from Part A. Approximately 150 subjects will be treated and evaluated for safety and preliminary antitumor activity after every two cycles of therapy. Tumor types include non-small cell lung cancer (NSCLC), glioblastoma multiforme (GBM), hepatocellular carcinoma (HCC), gastrointestinal neuroendocrine tumor of non-pancreatic origin (NET), diffuse large B-cell lymphoma (DLBCL), multiple myeloma (MM), and hormone receptor positive breast cancer (HRPBC). Up to 20 subjects will be enrolled in each tumor type.
(§2) Subjects will be evaluated for efficacy every 2 cycles through cycle 6 and every 3 cycles thereafter. The primary efficacy variable is response. Tumor assessments, including imaging (CT, MRI and/or PET) of the chest and abdomen and other sites as appropriate, will be performed during Screening. Subjects with brain lesions will also have brain scans at Screening and during follow-up tumor assessments. After Screening, tumor assessments (for all tumors except multiple myeloma) will be performed on completion of Cycles 2, 4 and 6 (i.e., on Cycles 3, 5 and 7/Day 1±7 days) and then every 3 months thereafter (e.g., Cycle 10 and 13/Day 1±7 days). Tumor assessment (for multiple myeloma and only NHL/DLBCL with known or suspected marrow involvement) (bone marrow aspiration and biopsy, with PD biomarker analysis, cytogenetic analysis if abnormally present at Screening) will be performed on completion of Cycles 4, 8, 12 and 16 only (i.e., on Cycles 5, 9, 13 and 17/Day 1±7 days). Cytogenetics need not be repeated if normal at Screening. […] Subjects will be evaluated for tumor response on completion of Cycle 2, 4, 6, and so on. […]
(§3) For Part B, efficacy variables to be analyzed include tumor response at the end of treatment, the proportion of subject alive and progression-free, and duration of response. […]

HCC = test: Phase 1/2 study Part B: tumor response, HCC; format: in vivo, human; settings: 14 evaluable patients
Description: as §1, §2, §3

CO[C@H]1CC[C@H](N2C(=O)CNc3ncc(-c4ccc(C(C)(C)O)nc4)nc32)CC1 [Compound 1, 7-(6-(2-hydroxypropan-2-yl)pyridin-3-yl)-1-((1r,4r)-4-methoxycyclohexyl)-3,4-dihydropyrazino-[2,3-b]pyrazin-2(1H)-one]
reduction of CD31-positive blood vessels compared with vehicle (U87MG tumors): 50% | patients meeting Partial Response (RECIST 1.1) (NSCLC): 1 patient | patients meeting at least Stable Disease (RECIST 1.1) (NSCLC): 11 patients | best target lesions responses (reduction) (NSCLC; 45 mg QD start): up to 35% | best target lesions responses (reduction) (HCC): up to 47% | patients meeting Partial Response (RECIST 1.1) (HCC): 2 patients | patients meeting at least Stable Disease (RECIST 1.1) (HCC): 5 patients
